Laboratory results taken from patent publication US20250034159A1, “INHIBITORS OF EPIDERMAL GROWTH FACTOR RECEPTOR” (ORIC Pharmaceuticals, Inc., priority 2021, published 2025).

Tests used:
Ba/F3_EGFR WT cells = test: Biological Activity Assay D: BaF3 cell proliferation assay, EGFR wild-type (BaF3 WT); format: cell-based; conditions: Ba/F3 EGFR; Ba/F3_EGFR WT cells, ~72 hours, CellTiter-Glo; read-out: BaF3 WT IC50
BaF3_EGFR d19/CS cells = test: Biological Activity Assay D: BaF3 cell proliferation assay, EGFR exon 19 deletion/C797S (BaF3 d19/CS); format: cell-based; conditions: Ba/F3 EGFR; BaF3_EGFR d19/CS cells, ~72 hours, CellTiter-Glo; read-out: BaF3 d19/CS IC50
[1] = target: recombinant human EGFR exon 19 deletion/C797S double mutant protein (Homo sapiens (Human), UniProt P00533, C797S/DEL746-750); test: Biological Activity Assay C: biochemical assay against EGFR exon 19 deletion/C797S protein (EGFR d19/CS)
Sequence of recombinant human EGFR exon 19 deletion/C797S double mutant protein (P00533 other isoform, or with tags, fused parts or gaps C797S/del 1-668/del 746-750 limits assumed): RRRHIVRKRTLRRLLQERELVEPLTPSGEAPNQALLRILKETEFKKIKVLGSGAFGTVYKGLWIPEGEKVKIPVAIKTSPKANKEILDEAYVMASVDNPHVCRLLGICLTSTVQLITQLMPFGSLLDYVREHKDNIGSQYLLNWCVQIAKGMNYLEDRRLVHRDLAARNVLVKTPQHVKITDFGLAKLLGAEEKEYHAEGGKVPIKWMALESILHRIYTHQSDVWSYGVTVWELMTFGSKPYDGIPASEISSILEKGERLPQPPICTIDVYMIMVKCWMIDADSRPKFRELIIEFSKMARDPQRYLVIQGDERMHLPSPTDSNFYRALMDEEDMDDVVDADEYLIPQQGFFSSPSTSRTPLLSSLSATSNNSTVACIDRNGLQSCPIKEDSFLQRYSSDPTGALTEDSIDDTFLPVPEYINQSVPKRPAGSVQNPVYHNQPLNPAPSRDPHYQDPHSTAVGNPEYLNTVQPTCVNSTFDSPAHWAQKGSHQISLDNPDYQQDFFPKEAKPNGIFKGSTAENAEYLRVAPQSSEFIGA
In short: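 Compounds were tested as 16-point serial dilutions (final DMSO 2.5%) with a Phosphosens peptide sensor/ATP working solution (40 uM/4 mM). The signal was read kinetically over 90 cycles at 120 s intervals. IC50s came from 4-parameter fits of per-well slopes.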

BaF3_EGFR LR/CS cells = test: Biological Activity Assay D: BaF3 cell proliferation assay, EGFR L858R/C797S mutant (BaF3 LR/CS); format: cell-based; conditions: Ba/F3 EGFR; BaF3_EGFR LR/CS cells, ~72 hours, CellTiter-Glo; read-out: BaF3 LR/CS IC50
[2] = target: recombinant human EGFR L858R/C797S double mutant protein (Homo sapiens (Human), UniProt P00533, C797S/L858R); test: Biological Activity Assay B: biochemical assay against EGFR L858R/C797S protein (EGFR LR/CS)
Sequence of recombinant human EGFR L858R/C797S double mutant protein (P00533 25-1210 C797S/L858R): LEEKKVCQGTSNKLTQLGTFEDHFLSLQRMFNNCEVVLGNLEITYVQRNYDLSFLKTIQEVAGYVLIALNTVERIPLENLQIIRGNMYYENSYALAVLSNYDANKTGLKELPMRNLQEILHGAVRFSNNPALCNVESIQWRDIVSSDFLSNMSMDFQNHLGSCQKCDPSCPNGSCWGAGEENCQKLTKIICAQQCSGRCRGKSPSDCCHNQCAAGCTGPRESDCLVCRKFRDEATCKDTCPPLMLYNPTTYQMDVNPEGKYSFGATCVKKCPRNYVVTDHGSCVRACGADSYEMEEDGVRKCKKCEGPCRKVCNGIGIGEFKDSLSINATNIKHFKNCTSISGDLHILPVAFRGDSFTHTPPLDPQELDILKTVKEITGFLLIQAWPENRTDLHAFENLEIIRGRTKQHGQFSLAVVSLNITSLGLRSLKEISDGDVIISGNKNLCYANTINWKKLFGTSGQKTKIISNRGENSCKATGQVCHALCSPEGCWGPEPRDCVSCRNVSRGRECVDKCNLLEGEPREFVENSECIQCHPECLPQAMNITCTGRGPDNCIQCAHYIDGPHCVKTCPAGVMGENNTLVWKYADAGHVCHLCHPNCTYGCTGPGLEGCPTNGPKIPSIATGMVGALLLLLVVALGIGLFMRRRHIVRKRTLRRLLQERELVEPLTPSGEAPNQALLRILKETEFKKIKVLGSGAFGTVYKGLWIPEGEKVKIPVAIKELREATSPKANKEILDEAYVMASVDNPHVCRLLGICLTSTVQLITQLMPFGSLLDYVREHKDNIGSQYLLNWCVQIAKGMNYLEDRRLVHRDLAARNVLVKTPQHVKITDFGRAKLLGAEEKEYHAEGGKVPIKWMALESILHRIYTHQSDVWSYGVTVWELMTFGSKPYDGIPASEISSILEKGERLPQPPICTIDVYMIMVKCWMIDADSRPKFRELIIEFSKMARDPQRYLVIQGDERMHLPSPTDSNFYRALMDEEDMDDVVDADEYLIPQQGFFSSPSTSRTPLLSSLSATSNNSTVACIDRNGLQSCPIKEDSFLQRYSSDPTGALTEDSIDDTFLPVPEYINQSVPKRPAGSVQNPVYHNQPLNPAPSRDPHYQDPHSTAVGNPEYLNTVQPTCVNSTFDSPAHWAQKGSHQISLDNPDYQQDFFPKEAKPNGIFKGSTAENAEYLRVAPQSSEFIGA
Procedure: In Row A of a 384-well polypropylene plate, was added 48 μL of DMSO. In wells A1 and A24, were added 12 μL of DMSO. […] To a well in Row A were added 12 μL of each 10 mM test compound stock (100% DMSO). […] The final intermediate dilution plate contained 4×16-point compound serial dilutions in assay buffer. The DMSO concentration was 10%. The intermediate compound dilution plate was transferred to the Bravo and the “5 uL dispense into ARP.pro” protocol was run. To the black low volume assay ready plates, were added 5 μL of 40 uM Phosphosens peptide sensor/4 mM ATP working solution to each well. […] To column 24, was added 10 μL of assay buffer. The final DMSO concentration was 2.5%. […] The plates were sealed with the TopSeal-A Plus plate seals. […] Set for 90 cycles with 120 second interval. […] The slope of each curve was constructed using Dotmatics in each well, and each IC50s was calculated using a 4-parameter fit model.

Row | SMILES | IC50 (Ba/F3_EGFR WT cells) [nM] | IC50 (BaF3_EGFR d19/CS cells) [nM] | IC50 [1] [nM] | IC50 (BaF3_EGFR LR/CS cells) [nM] | IC50 [2] [nM]
1 | CS(=O)(=O)N1CC[C@H](n2cc(-c3ncnc4oc(-c5ccccc5)cc34)c(-c3ccc(F)cc3)n2)C1 (single isomer, unassigned) [Example 102] | 161 | 16.5 | 0.2 | 21.1 | 0.35
2 | CC(C)(O)CCc1nc(-c2ccc(F)cc2)c(-c2ncnc3oc(-c4ccccc4)cc23)o1 [Example 44, 4-[4-(4-fluorophenyl)-5-(6-phenylfuro[2,3-d]pyrimidin-4-yl)-1,3-oxazol-2-yl]-2-methylbutan-2-ol] | 6650 | 421 | 1.79 | 263 | 2.76
3 | CS(=O)(=O)CCn1cc(-c2ncnc3oc(-c4ccccc4)cc23)c(-c2ccc(F)cc2)n1 [Example 38, 4-{3-(4-Fluorophenyl)-1-[2-(methanesulfonyl)ethyl]-1H-pyrazol-4-yl}-6-phenylfuro[2,3-d]pyrimidine] | 2170 | 44.8 | 0.856 | 121 | 0.434
4 | CS(=O)(=O)N1CC[C@@H](n2cc(-c3ncnc4oc(-c5ccccc5)cc34)c(-c3ccc(F)cc3)n2)C1 (single isomer, unassigned) [Example 101] | 115 | 4.96 | 0.27 | 8.69 | 0.39
5 | OCCCc1nc(-c2ccc(F)cc2)c(-c2ncnc3sc(-c4ccccc4)cc23)o1 [Example 74, 3-[4-(4-fluorophenyl)-5-(6-phenylthieno[2,3-d]pyrimidin-4-yl)-1,3-oxazol-2-yl]propan-1-ol] | > 20000 | 920 | 2.9 | 267 | 9.37
6 | O=S1(=O)CC[C@H](Cn2cc(-c3ncnc4oc(-c5ccccc5)cc34)c(-c3ccc(F)cc3)n2)C1 (single isomer, unassigned) [Example 96] | 1480 | 150 | 0.62 | 73.8 | 0.39
7 | CS(=O)(=O)N1CC(n2cc(-c3ncnc4oc(-c5ccccc5)cc34)c(-c3ccc(F)cc3)n2)C1 [Example 114, 4-{3-(4-fluorophenyl)-1-[1-(methanesulfonyl)azetidin-3-yl]-1H-pyrazol-4-yl}-6-phenylfuro[2,3-d]pyrimidine] | 3320 | 137 | 0.55 | 132 | 1.62
8 | CC(C)(O)CCc1nc(-c2ccc(F)cc2)c(-c2ncnc3sc(-c4ccccc4)cc23)o1 [Example 66, 4-[4-(4-fluorophenyl)-5-(6-phenylthieno[2,3-d]pyrimidin-4-yl)-1,3-oxazol-2-yl]-2-methylbutan-2-ol] | > 20000 | 1290 | 8.12 | 2690 | 14.5
9 | CN(C)S(=O)(=O)CCCn1cc(-c2ncnc3oc(-c4ccccc4)cc23)c(-c2ccc(F)cc2)n1 [Example 61, 3-[3-(4-Fluorophenyl)-4-(6-phenylfuro[2,3-d]pyrimidin-4-yl)-1H-pyrazol-1-yl]-N,N-dimethylpropane-1-sulfonamide] | 1140 | 24.4 | 0.907 | 73.2 | 0.601
10 | CC(C)(O)CCn1ncc(-c2ncnc3oc(-c4ccccc4)nc23)c1-c1ccc(F)cc1 [Example 22, 4-[5-(4-fluorophenyl)-4-(2-phenyl[1,3]oxazolo[5,4-d]pyrimidin-7-yl)-1H-pyrazol-1-yl]-2-methylbutan-2-ol] | 20000 | 4100 | 90.9 | 3660 | 197
11 | CC(O)CCn1cc(-c2ncnc3oc(-c4ccccc4)cc23)c(-c2ccc(F)cc2)n1 (stereo not shown) [Example 62, 4-[3-(4-Fluorophenyl)-4-(6-phenylfuro[2,3-d]pyrimidin-4-yl)-1H-pyrazol-1-yl]butan-2-ol] | 1150 | 30.1 | 0.703 | 45 | 0.527
12 | O=S1(=O)CC(CCn2cc(-c3ncnc4oc(-c5ccccc5)cc34)c(-c3ccc(F)cc3)n2)C1 [Example 52, 3-{2-[3-(4-Fluorophenyl)-4-(6-phenylfuro[2,3-d]pyrimidin-4-yl)-1H-pyrazol-1-yl]ethyl}-1λ6-thietane-1,1-dione] | 1940 | 20.8 | 0.368 | 106 | 0.307
13 | Fc1ccc(-c2nn(CC3(F)COC3)cc2-c2ncnc3oc(-c4ccccc4)cc23)cc1 [Example 32, 4-{1-[(3-fluorooxetan-3-yl)methyl]-3-(4-fluorophenyl)-1H-pyrazol-4-yl}-6-phenylfuro[2,3-d]pyrimidine] | 4730 | 114 | 1.26 | 130 | 1.36
14 | COC(C)(C)Cn1cc(-c2ncnc3oc(-c4ccccc4)cc23)c(-c2ccc(F)cc2)n1 [Example 93, 4-[3-(4-fluorophenyl)-1-(2-methoxy-2-methylpropyl)-1H-pyrazol-4-yl]-6-phenylfuro[2,3-d]pyrimidine] | 4290 | 450 | 0.73 | 184 | 0.91

Now from value to compound:

Row | IC50 (Ba/F3_EGFR WT cells) [nM] | IC50 (BaF3_EGFR d19/CS cells) [nM] | IC50 [1] [nM] | IC50 (BaF3_EGFR LR/CS cells) [nM] | IC50 [2] [nM] | SMILES
15 | 3490 | 810 | 7.72 | 726 | 13 | N#CCn1cc(-c2ncnc3oc(-c4ccccc4)nc23)c(-c2ccc(F)cc2)n1 [Example 25, [3-(4-fluorophenyl)-4-(2-phenyl[1,3]oxazolo[5,4-d]pyrimidin-7-yl)-1H-pyrazol-1-yl]acetonitrile]
16 | 483 | 21.4 | 0.732 | 25.3 | 1.08 | OCCCc1cc(-c2ccnc3[nH]c(-c4ccccc4)cc23)n(-c2ccc(F)cc2)n1 [Example 12, 3-[1-(4-fluorophenyl)-5-{2-phenyl-1H-pyrrolo[2,3-b]pyridin-4-yl}pyrazol-3-yl]propan-1-ol]
17 | 8040 | 1050 | 18.6 | 1630 | 15.6 | CC(C)(O)CCn1cc(-c2ncnc3sc(-c4ccccc4)cc23)c(-c2ccc(F)cc2)n1 [Example 67, 4-[3-(4-fluorophenyl)-4-(6-phenylthieno[2,3-d]pyrimidin-4-yl)-1H-pyrazol-1-yl]-2-methylbutan-2-ol]
18 | 2490 | 44.7 | 0.909 | 124 | 1.13 | OC1(CCn2cc(-c3ncnc4oc(-c5ccccc5)cc34)c(-c3ccc(F)cc3)n2)CC1 [Example 24, 1-{2-[3-(4-fluorophenyl)-4-(6-phenylfuro[2,3-d]pyrimidin-4-yl)-1H-pyrazol-1-yl]ethyl}cyclopropan-1-ol]
19 | > 20000 | 779 | 10.8 | 566 | 6.21 | O=S1(=O)CCCC(n2cc(-c3ncnc4oc(-c5ccccc5)cc34)c(-c3ccc(F)cc3)n2)C1 (stereo not shown) [Example 84, 3-[3-(4-fluorophenyl)-4-(6-phenylfuro[2,3-d]pyrimidin-4-yl)-1H-pyrazol-1-yl]-1λ6-thiane-1,1-dione]
20 | 1280 | 21.4 | 0.29 | 78.5 | 0.247 | CS(=O)(=O)CCCn1cc(-c2ncnc3oc(-c4ccccc4)cc23)c(-c2ccc(F)cc2)n1 [Example 55, 4-{3-(4-Fluorophenyl)-1-[3-(methanesulfonyl)propyl]-1H-pyrazol-4-yl}-6-phenylfuro[2,3-d]pyrimidine]
